Target: T1, human recombinant Aldh1a1 (hAldh1a1) (Homo sapiens, UniProt P00352)
T1 construct: recombinant human Aldh1a1 protein (Novoprotein, CF44)
T1 sequence (P00352 2-501): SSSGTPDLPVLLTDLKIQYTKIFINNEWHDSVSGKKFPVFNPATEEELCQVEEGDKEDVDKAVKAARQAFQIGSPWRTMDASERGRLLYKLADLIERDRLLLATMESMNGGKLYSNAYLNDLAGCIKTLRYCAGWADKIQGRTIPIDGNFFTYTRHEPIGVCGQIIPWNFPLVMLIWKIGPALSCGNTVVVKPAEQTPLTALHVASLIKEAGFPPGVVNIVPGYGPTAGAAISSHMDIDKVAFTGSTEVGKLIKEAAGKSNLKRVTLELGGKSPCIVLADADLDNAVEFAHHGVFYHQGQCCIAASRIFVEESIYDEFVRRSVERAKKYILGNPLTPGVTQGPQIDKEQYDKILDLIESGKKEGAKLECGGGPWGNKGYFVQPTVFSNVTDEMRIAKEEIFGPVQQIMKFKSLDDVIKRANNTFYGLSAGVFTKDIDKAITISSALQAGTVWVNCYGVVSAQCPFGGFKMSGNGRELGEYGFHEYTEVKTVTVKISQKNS
Assay: SPR (Biacore T200, CM5 chip, amine coupling); also inhibited the recombinant enzyme's activity at […]
Assay type: binding

Kd: 1980 nM
SMILES: COC(=O)C1=C(C)NC(C)=C(C(=O)OCCN(C)Cc2ccccc2)C1c1cccc([N+](=O)[O-])c1 (stereo not shown) [13-F9, nicardipine]

Reference: article PMC11251182, “Tubular insulin-induced gene 1 deficiency promotes NAD^+ consumption and exacerbates kidney fibrosis” (EMBO Molecular Medicine, 2024)
